In one assay the test system is D. melanogaster nAChRs. Kind of assay: Comparison of agonist activity between nAChRs expressed in X. laevis oocytes (one-way ANOVA, Kruskal-Wallis). The class given is cell-based. The method, then:
(§1) We minimised the use of X. laevis according to the UK Animals (Scientific Procedures) Act, 1986. […] Oocytes were defolliculated after collagenase treatment in Ca^2+-free standard oocyte saline (Ca^2+-free SOS). cRNAs of the nAChR subunits and co-factors mixed at a concentration of 0.1 mg/mL was injected into oocytes at a volume of 50 nL. Then the oocytes were incubated in the incubation medium (SOS supplemented with sodium pyruvate (Nacalai Tesque, #13058–12), penicillin-streptomycin (MilliporeSigma, #P4333), gentamycin (Nacalai Tesque, #16672–04), and 4% horse serum (Thermo Fisher Scientific, #26050–070) for 3−4 days prior to electrophysiology.
(§2) Each defolliculated X. laevis oocyte was secured in a Perspex recording chamber and perfused with the standard oocyte saline (SOS) containing 0.5 μM atropine (SOSA) at a flow rate of 7−10 mL/min [48]. Two glass electrodes filled with 2 M KCl were impaled into each oocyte and the membrane potential was clamped at -100 mV. […] The peak amplitude of the response was measured and analysed by pCLAMP (Molecular Devices, USA).
(§3) Y=Imax/1+10^(logEC50‐X)nH
(§4) Where Y is the normalised response, X is log[ligand (M)], EC50 is the half maximal concentration (M), Imax is the maximum normalised response and nH is the Hill coefficient.
Prism software was employed for the statistical analyses. […] One-way ANOVA was used to analyse the differences of the ligand agonist activity in terms of pEC50 on the various nAChRs expressed in X. laevis as well as data obtained with D. melanogaster larvae and adults.

The subject of another assay is D. melanogaster. The following applies: Dα2 knockout; cited from earlier work.
Another assay concerns the target T1, Dα3/Dβ1 nAChR (Drosophila melanogaster, UniProt P04755+Q9W3G6).
T1 construct: Dβ1 (NP_523927); expressed in transfected cells; host or cells: Xenopus laevis oocytes (cRNA injection)
Kind of assay: cell-based. The class given is cell-based, D. melanogaster. The method, then: (§5) cDNAs of the nAChR subunits and co-factors were cloned into pcDNA3.1 (+) vector (Thermo Fisher Scientific). The accession numbers of the nAChR subunits and cofactors are as follows: Dα1 (NP_524481), Dα2 (NP_524482), Dα3 (NP_525079), Dα4 (CAB77445), Dβ1 (NP_523927), Dβ2 (NP_524483), Dβ3 (NP_525098), DmRIC-3 (CAP16647), DmUNC-50 (NP_649813), and DmTMX3 (NP_648847). cRNAs were prepared using the mMESSAGE mMACHINE T7 ULTRA Transcription Kit (Thermo Fisher Scientific, #AM1345) according to the manual with the cDNA template which was cut with appropriate restriction enzymes at the 3’ end of the cDNA.
as §1, §2, §3, §4

The next assay deals with T2, Dα2/Dα3/Dβ1 nAChR (Drosophila melanogaster, UniProt P04755+P17644+Q9W3G6).
T2 construct: Dα2 (NP_524482); Dβ1 (NP_523927); expressed in transfected cells; host or cells: Xenopus laevis oocytes (cRNA injection)
Briefly: Voltage-clamp electrophysiology, nAChR expressed in X. laevis oocytes. The class given is cell-based, D. melanogaster. The method, then: as §5, §1, §2, §3, §4

In another assay the target is T3, Dα3/Dβ1/Dβ2 nAChR (Drosophila melanogaster, UniProt P04755+P25162+Q9W3G6).
T3 construct: Dβ1 (NP_523927); Dβ2 (NP_524483); expressed in transfected cells; host or cells: Xenopus laevis oocytes (cRNA injection)
The description is as above. The class given is cell-based, D. melanogaster. How it is done:
as §5, §1, §2, §3, §4

Another assay concerns Dα1/chicken β2 nAChR. The note with it: cited from earlier work.
The test system of a further assay is Dα2/chicken β2 nAChR. The note with it: cited from earlier work.

Consider `N#C/N=C1\SCCN1Cc1ccc(Cl)nc1` [Thiacloprd], for which the “Difference of Imax values, nAChRs compared” value is given as -0.007 in the assay with D. melanogaster nAChRs (Dα1/Dα2/Dα3/Dβ1/Dβ2 vs. Dα1/Dα2/Dα4/Dβ1/Dβ2); 0.036 with D. melanogaster nAChRs (Dα1/Dα2/Dα3/Dβ1/Dβ2 vs. Dα1/Dα2/Dβ1/Dβ2/Dβ3); 0.033 in the assay with D. melanogaster nAChRs (Dα1/Dα2/Dα3/Dβ1/Dβ2 vs. Dα1/Dα3/Dα4/Dβ1/Dβ2); -0.030 in the assay on D. melanogaster nAChRs (Dα1/Dα2/Dα3/Dβ1/Dβ2 vs. Dα1/Dα3/Dβ1/Dβ2/Dβ3); 0.041 in the assay on D. melanogaster nAChRs (Dα1/Dα2/Dα3/Dβ1/Dβ2 vs. Dα2/Dα3/Dα4/Dβ1/Dβ2); 0.049 in the assay on D. melanogaster nAChRs (Dα1/Dα2/Dα3/Dβ1/Dβ2 vs. Dα2/Dα3/Dβ1/Dβ2/Dβ3).
In the case of `CCN(Cc1ccc(Cl)nc1)/C(=C/[N+](=O)[O-])NC` [nitenpyram], in the assay with D. melanogaster, the “sensitivity in larvae, effect of knockout” value is reported as “enhanced”.
Take α-Bungarotoxin [α-BTX]: the “blocking effect on ACh-induced response” value on Dα3/Dβ1 nAChR, at Dα2/Dα3/Dβ1 nAChR and at Dα3/Dβ1/Dβ2 nAChR was “minimal blocking effect” each time. The “sensitivity to α-BTX” value in the assay with Dα1/chicken β2 nAChR is recorded as “sensitive”; in the assay on Dα2/chicken β2 nAChR, “resistant”.

The values above are taken from PMC9934367, “Functional impact of subunit composition and compensation on Drosophila melanogaster nicotinic receptors–targets of neonicotinoids” (PLOS Genetics, 2023).
